From patent publication US11666561B2, “Compounds for use in regulating follicle maturation” (AARHUS UNIVERSITET, priority 2017, dated 2023)
Counter-ions that a name gives are not always drawn.

Tested on: primordial-to-primary follicle transition
Test: In vitro organ culture of mouse ovaries with compound, H&E histology and counting of primordial, primary and secondary follicles
Details: for effect on primordial-to-primary follicle transition / primordial follicle activation: in vitro cultured mouse ovaries, concentration not given
Procedure: Ovaries obtained from mice were washed twice with culture medium. Antagonists or agonists to be tested were dissolved in suitable solvents and added to the medium. As a control medium comprising solvent without the antagonist or agonist was used. One of the ovaries was cultured in a control medium and another was cultured with the antagonist or agonist. The tested antagonists or agonists and their concentrations are outlined in table 2.
Ovaries were incubated with antagonist at 37° C. and 5% CO2 for 24 and 96 hours, respectively (see table 3).
Cultures ovaries were fixed, embedded in paraffin and sliced microscopy. The sectioned ovaries were stained with hematoxylin and eosin (H&E) to visualize the morphology of the ovary by microscopy.
The number of primordial, primary and secondary follicles was determined, and it was determined whether the antagonist or agonist was capable of regulating folliculogenesis.
C57BL/6j×CBA F1 hybrid mice (Janvier Labs, France) were housed and bred in the animal facilities at Department of Biomedicine, Aarhus University. Animals were housed in a 12:12 h controlled light-dark environment and were provided with food and water ad libitum. 7-day-old female pups were used for the study.
Pups were sacrificed and ovaries were excised. Using a stereomicroscope MZ75 (Leica Microsystems, Germany), excess tissue was removed. During the dissection, ovaries were kept at 37° C. in culture medium: aMEM (Thermo Fisher) supplemented with 10% FBS (Thermo Fisher), 100 mIU/mL of FSH (Sigma-Aldrich), 100 IU/mL penicillin (Thermo Fisher), 100 μg/mL streptomycin (Thermo Fisher) and 1% Insulin-Transferrin-Selenium (Thermo Fisher). Isolated ovaries were transferred into well inserts (PET membrane ThinCert, 0.4 μm-pore size; Greiner bio-one) in 24-well plates (Tissue culture treated, cell culture plates; Costar). 200-300 μL of culture medium was added to the well below the insert and up to two ovaries were placed on the membrane of each insert. The culture medium was supplemented with different concentrations of the tested compounds; bpV(HOpic) (Sigma-Aldrich), Temsirolimus (Sigma-Aldrich), Ketotifen (Sigma-Aldrich), 3PO (Sigma-Aldrich), Dorsomorphin (Sigma-Aldrich), AICAR (Sigma-Aldrich), NCG (Sigma-Aldrich), and Dyphylline (Cayman Chemical). Up to six wells in the 24-well plate were used for inserts. Sterile dH2O was added to the rest of the wells to ensure humidity and reduce evaporation. The ovaries were cultured at 37° C., 5% CO2 for four days. 150 μL of medium was replaced every other day with fresh culture medium.
Ovaries kept in organ culture for four days were fixed for 24 hours in 4% paraformaldehyde solution at 4° C. After fixation, ovaries were dehydrated in ethanol series using 70%, 96% and 99.9% ethanol. Xylene was used as clearing agent before the ovaries were infiltrated in paraffin wax. 5 μm-sections of samples in paraffin were cut using a microtome (Cut 6062, SLEE medical, Germany). Paraffin sections were mounted on glass slides, paraffin was melted at 60° C., and the samples were stained with hematoxylin and eosin (using standard protocols).
The samples were deparaffinized by incubating in xylene for 2×15 min. and subsequently rehydrated in series of ethanol; 3×2 min. in 99.9% ethanol, 2 min. in 96% ethanol, and 2 min. in 70% ethanol. The samples were then rinsed in dH2O, stained in hematoxylin for 40 sec., rinsed in dH2O for 5 min., and stained in eosin for 46 sec. The samples were dehydrated in ethanol: 2×2 min. in 96% ethanol, 2×2 min in 99.9% ethanol, and finally cleared up in xylene for at least 30 min before mounting the samples using Eukitt mounting medium (Sigma-Aldrich) and cover glass.
The number of follicles at each developmental stage was counted using an inverted research microscope (DM14000B, Leica Microsystems, Germany). The follicles of every 3rd to 4th section of each ovary were counted and the distribution of follicles in the different stages in percentage was determined.

[1] = Table 1, effect with a figure cited
[2] = Table 2, effect with a figure cited
[3] = 1.0 μM Trigonellin hydrochloride, 96 hours

Row | Molecule | Effect (Table 1, marked (ongoing)) | Effect (Table 2, marked (ongoing)) | further results
1 | CNC(=O)c1cc(Oc2ccc(NC(=O)Nc3ccc(Cl)c(C(F)(F)F)c3)cc2)ccn1 [BIIB022, 4-[4-[[4-chloro-3-(trifluoromethyl)phenyl]carbamoylamino]phenoxy]-N-methyl-pyridine-2-carboxamide] | promotes | promotes | –
2 | O=C1CCc2cc(OCCCCc3nnnn3C3CCCCC3)ccc2N1 [Cilostazol, 6-[4-(1-cyclohexyltetrazol-5-yl)butoxy]-3,4-dihydro-1H-quinolin-2-one] | promotes | promotes | –
3 | CC(=O)CCCCn1c(=O)c2c(ncn2C)n(C)c1=O [Pentoxifylline, 3,7-dimethyl-1-(5-oxohexyl)purine-2,6-dione] | promotes | promotes | –
4 | C=CC(=O)N1CCC(Oc2cc3c(Nc4ccc(Cl)c(Cl)c4F)ncnc3cc2OC)CC1 [Poziotinib, 1-[4-[4-(3,4-dichloro-2-fluoroanilino)-7-methoxyquinazolin-6-yl]oxypiperidin-1-yl]prop-2-en-1-one] | promotes | promotes | –
5 | COc1cc(C(=O)O)ccc1NC(=O)[C@@H]1N[C@@H](CC(C)(C)C)[C@](C#N)(c2ccc(Cl)cc2F)[C@H]1c1cccc(Cl)c1F [Idasanutlin, 4-{[(3S,4R,5S)-3-(3-Chloro-2-fluorophenyl)-4-(4-chloro-2-fluorophenyl)-4-cyano-5-(2,2-dimethylpropyl)-D-prolyl]amino}-3-methoxybenzoic acid] | promotes | promotes | –
6 | CC(C)[C@@H](CS(=O)(=O)C(C)C)N1C(=O)[C@@](C)(CC(=O)O)C[C@H](c2cccc(Cl)c2)[C@H]1c1ccc(Cl)cc1 [AMG-232, 2-[(3R,5R,6S)-5-(3-chlorophenyl)-6-(4-chlorophenyl)-3-methyl-1-[(2S)-3-methyl-1-propan-2-ylsulfonylbutan-2-yl]-2-oxopiperidin-3-yl]acetic acid] | promotes | promotes | –
7 | CS(=O)(=O)N1CCN(Cc2cc3nc(-c4cccc5[nH]ncc45)nc(N4CCOCC4)c3s2)CC1 [Pictilisib, 2-(1H-indazol-4-yl)-6-(4-methanesulfonylpiperazin-1-ylmethyl)-4-morpholin-4-ylthieno(3,2-d)pyrimidine] | promotes | promotes | –
8 | PDGF-AA: peptide, expressed in E coli, SEQ ID NO: 1, binds and activates PDGFRA | promotes | promotes | –
9 | Cc1cn(-c2cc(NC(=O)c3ccc(C)c(Nc4nccc(-c5cccnc5)n4)c3)cc(C(F)(F)F)c2)cn1 [Pirotinib, 4-methyl-N-[3-(4-methylimidazol-1-yl)-5-(trifluoromethyl)phenyl]-3-[(4-pyridin-3-ylpyrimidin-2-yl)amino]benzamide] | promotes | promotes | –
10 | COc1cc(N2CCC(N3CCN(C)CC3)CC2)ccc1Nc1nc2c(c(Nc3ccccc3S(=O)(=O)NC(C)C)n1)CCN2 [CT-707] | promotes | promotes | –
11 | Cn1c(=O)n(-c2ccc(C(C)(C)C#N)cc2)c2c3cc(-c4cnc5ccccc5c4)ccc3ncc21 [Dactolisib, -methyl-2-(4-(3-methyl-2-oxo-8-(quinolin-3-yl)-2,3-dihydro-1H-imidazo[4,5-c]quinolin-1-yl)phenyl)propanenitrile] | promotes | promotes | –
12 | NC(=O)N[C@@H](CCC(=O)O)C(=O)O [NCG, (2S)-2-(carbamoylamino)pentanedioic acid] | – | – | effect on follicle distribution (10, 20 and 30 μM NCG, 96 hours): has the potential to activate primordial follicle distribution; Effect [1]: promotesfollicle; Effect [2]: promotesfollicle
13 | Nc1cc(-c2ccncc2)c[nH]c1=O [Amrinone, 3-amino-5-pyridin-4-yl-1H-pyridin-2-one] | promotes | promotes | –
14 | C=CC(=O)Nc1cc(Nc2nccc(-c3cn(C)c4ccccc34)n2)c(OC)cc1N(C)CCN(C)C [Osimertinib, N-[2-[2-(dimethylamino)ethyl-methylamino]-4-methoxy-5-[[4-(1-methylindol-3-yl)pyrimidin-2-yl]amino]phenyl]prop-2-enamide] | promotes | promotes | –
15 | Cc1nccc2[nH]c(=O)ccc12 [Medorinone, 5-methyl-1H-1,6-naphthyridin-2-one] | promotes | promotes | –
16 | Nc1cc(C(F)(F)F)c(-c2cc(N3CCOCC3)nc(N3CCOCC3)n2)cn1 [Buparlisib, 5-(2,6-dimorpholinopyrimidin-4-yl)-4-(trifluoromethyl)pyridin-2-amine] | promotes | promotes | –
17 | Cc1c(NC(=O)OC[C@@H]2COCCN2)cn2ncnc(Nc3ccc4c(cnn4Cc4cccc(F)c4)c3)c12 [BMS-599626, [(3S)-morpholin-3-yl]methyl N-[4-[[1-[(3-fluorophenyl)methyl]indazol-5-yl]amino]-5-methylpyrrolo[2,1-f][1,2,4]triazin-6-yl]carbamate] | promotes | promotes | –
18 | CN1CCC(=C2c3ccccc3CC(=O)c3sccc32)CC1 [Ketotifen, 4,9-dihydro-4-(1-methyl-4-piper-idylidende)-10H-benzo(4,5)cyclohepta(1,2,b)thiophen-10-one] | – | – | less primary follicles than control (85 nM Ketotifen, 96 hours): ~44%; less secondary follicles than control (85 nM Ketotifen, 96 hours): ~65%; more primordial follicles than control (85 nM Ketotifen, 96 hours): approximately 9%; Effect [1]: inhibits follicle; Effect [2]: inhibits follicle; effect on primordial-to-primary follicle transition / primordial follicle activation: significantly more primordial follicles
19 | CC1(O)CC(c2nc(-c3ccc4ccc(-c5ccccc5)nc4c3)c3c(N)nccn23)C1 (stereo not drawn) [Linsitinib, 3-[8-amino-1-(2-phenylquinolin-7-yl)imidazo[1,5-a]pyrazin-3-yl]-1-methylcyclobutan-1-ol] | promotes | promotes | –
20 | O=C1C=C/C(=C(/[O-])O)N=C1.[K+].[O-][O-].[O-][O-].[O]=[V] [bpV(HOpic)] | – | – | effect on primordial-to-primary follicle transition / primordial follicle activation: increase the rate of primordial-to-primary transition
21 | C[n+]1cccc(C(=O)[O-])c1 [Trigonellin hydrochloride] | – | – | decrease in the average numbers of primordial follicles compared to the control [3]: ~20%; increase compared to the control (follicle stage not given) [3]: ~74%
22 | CN(C)C(=N)N=C(N)N [Metformin, N,N-Dimethylimiddicarbonimiddiamid] | promotes | promotes | –
23 | COc1cc([C@@H]2c3cc4c(cc3[C@H](O)[C@H]3COC(=O)[C@@H]23)OCO4)cc(OC)c1OC [Picropodophyllin, (5R,5aR,8aS,9R)-5-hydroxy-9-(3,4,5-trimethoxyphenyl)-5a,6,8a,9-tetrahydro-5H-[2]benzofuro[5,6-f][1,3]benzodioxol-8-one] | promotes | promotes | –
24 | OCCN(CCO)c1nc(N2CCCCC2)c2nc(N(CCO)CCO)nc(N3CCCCC3)c2n1 [Dipyridamole, 2-[[2-[bis(2-hydroxyethyl)amino]-4,8-di(piperidin-1-yl)pyrimido[5,4-d]pyrimidin-6-yl]-(2-hydroxyethyl)amino]ethanol] | promotes | promotes | –
25 | CCOc1cc2ncc(C#N)c(Nc3ccc(OCc4ccccn4)c(Cl)c3)c2cc1NC(=O)/C=C/CN(C)C [AVE1642, (E)-N-[4-[3-chloro-4-(pyridin-2-ylmethoxy)anilino]-3-cyano-7-ethoxyquinolin-6-yl]-4-(dimethylamino)but-2-enamide] | promotes | promotes | –
